Source: the supplement of paper PMC10307832

Key:
Experiment in all cases: relative viability (nuclei count vs DMSO), 5 days (fraction); higher = more cells survive
Lapatinib + Luminespib = compound: CS(=O)(=O)CCNCc1ccc(-c2ccc3ncnc(Nc4ccc(OCc5cccc(F)c5)c(Cl)c4)c3c2)o1 [Lapatinib] + CCNC(=O)c1noc(-c2cc(C(C)C)c(O)cc2O)c1-c1ccc(CN2CCOCC2)cc1 [Luminespib] (partner 0.01 µM)
In short: (§1)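 After 5 days of treatment, lung cancer cells in 1536-well plates were fixed and stained in a single step (final 0.05% Triton X-100, 1% formaldehyde, 1 ug/ml Hoechst) and their nuclei counted on 4× images. Treatment had been applied by pin tool the day after seeding as one drug alone or as a fixed anchor-drug dose with five library-drug doses (not always all listed) in √10 steps. Relative viability is the nuclei count of treated wells divided by that of vehicle wells, and values are medians of duplicate plates.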

Wnt-C59 + Lapatinib = compound: CC1=NC=CC(=C1)C2=CC=C(C=C2)CC(=O)NC3=CC=C(C=C3)C4=CN=CC=C4 [Wnt-C59] + CS(=O)(=O)CCNCc1ccc(-c2ccc3ncnc(Nc4ccc(OCc5cccc(F)c5)c(Cl)c4)c3c2)o1 [Lapatinib] (partner 2 µM)
In short: as §1

Wnt-C59 + Olaparib = compound: CC1=NC=CC(=C1)C2=CC=C(C=C2)CC(=O)NC3=CC=C(C=C3)C4=CN=CC=C4 [Wnt-C59] + O=C(c1cc(Cc2n[nH]c(=O)c3ccccc23)ccc1F)N1CCN(C(=O)C2CC2)CC1 [Olaparib] (partner 8 µM)
In short: as §1

Lapatinib + Alpelisib = compound: CS(=O)(=O)CCNCc1ccc(-c2ccc3ncnc(Nc4ccc(OCc5cccc(F)c5)c(Cl)c4)c3c2)o1 [Lapatinib] + Cc1nc(NC(=O)N2CCC[C@H]2C(N)=O)sc1-c1ccnc(C(C)(C)C(F)(F)F)c1 [Alpelisib] (partner 2 µM)
In short: as §1

Cell Line | relative viability (Lapatinib + Luminespib; first compound 0.02 µM) | relative viability (Lapatinib + Luminespib; first compound 0.06325 µM) | relative viability (Lapatinib + Luminespib; first compound 0.2 µM) | relative viability (Lapatinib + Luminespib; first compound 0.6325 µM) | relative viability (Lapatinib + Luminespib; first compound 2 µM) | relative viability (Wnt-C59 + Lapatinib; first compound 0.001 µM) | relative viability (Wnt-C59 + Lapatinib; first compound 0.01 µM) | relative viability (Wnt-C59 + Lapatinib; first compound 0.03162 µM) | relative viability (Wnt-C59 + Lapatinib; first compound 0.1 µM) | relative viability (Wnt-C59 + Olaparib; first compound 0.001 µM) | relative viability (Wnt-C59 + Olaparib; first compound 0.01 µM) | relative viability (Wnt-C59 + Olaparib; first compound 0.03162 µM) | relative viability (Wnt-C59 + Olaparib; first compound 0.1 µM) | relative viability (Lapatinib + Alpelisib; first compound 0.02 µM) | relative viability (Lapatinib + Alpelisib; first compound 0.06325 µM) | relative viability (Lapatinib + Alpelisib; first compound 0.2 µM) | relative viability (Lapatinib + Alpelisib; first compound 0.6325 µM) | relative viability (Lapatinib + Alpelisib; first compound 2 µM)
NCI-H1975 | 0.256 | 0.122 | 0.239 | 0.212 | 0.206 | 0.816 | 0.863 | 0.934 | 0.882 | 0.797 | 0.807 | 0.786 | 0.869 | 0.662 | 0.58 | 0.537 | 0.573 | 0.462
NCI-H1993 | 0.824 |  | 0.737 | 0.749 | 0.476 | 0.734 | 0.832 | 0.852 | 0.825 | 1.17 | 1.06 | 1.11 | 0.413 | 0.683 |  | 0.721 | 0.684 | 0.665
NCI-H2009 | 0.953 | 1.09 | 1.08 | 0.931 | 0.984 | 0.993 | 1.04 | 0.903 | 0.881 | 0.644 | 0.765 | 0.734 | 0.727 | 1.12 | 1.16 | 1.16 | 1.16 | 1.12
NCI-H2023 | 0.696 | 0.593 | 0.723 | 0.751 | 0.619 | 0.715 | 0.93 | 1.17 | 0.666 | 0.498 | 0.517 | 0.555 | 0.411 | 0.53 | 0.576 | 0.528 | 0.553 | 0.378
NCI-H2085 |  | 0.402 | 0.396 | 0.447 | 0.322 | 0.8 | 0.726 | 0.771 | 0.819 | 0.795 | 0.769 | 0.822 | 0.744 | 0.869 | 0.845 | 0.932 | 1 | 0.694
NCI-H2087 |  | 0.169 | 0.169 | 0.162 | 0.161 | 1.01 | 1.04 | 1.08 | 0.908 | 0.608 | 0.657 | 0.688 | 0.722 | 1.12 | 1.06 | 1.21 | 1.01 | 0.931
NCI-H2126 |  | 0.729 | 0.833 | 0.859 | 0.775 | 0.78 | 0.731 | 0.792 | 0.772 | 0.896 | 0.952 | 0.88 | 0.905 |  | 0.587 | 0.668 | 0.677 | 0.549
NCI-H2170 | 0.664 | 0.385 | 0.433 | 0.462 | 0.223 | 0.265 | 0.262 | 0.275 | 0.271 | 0.631 | 0.568 | 0.649 | 0.499 | 0.76 | 0.551 | 0.477 | 0.376 | 0.21
NCI-H2228 | 0.137 | 0.128 | 0.145 | 0.143 | 0.123 | 1.3 | 1.07 | 0.801 | 0.874 | 1.04 | 0.635 | 0.641 | 0.734 | 0.675 | 0.688 | 0.811 | 0.907 | 0.59
NCI-H2347 |  | 0.156 | 0.638 | 0.523 | 0.361 | 0.961 | 0.861 | 0.976 | 0.854 | 0.554 | 0.541 | 0.615 | 0.593 | 0.901 | 1.01 | 1.07 | 0.844 | 1.02
NCI-H2405 | 0.696 | 0.469 | 0.52 | 0.567 | 0.467 | 1.02 |  | 0.968 | 0.95 | 0.851 | 0.879 | 0.898 | 0.861 |  | 0.609 | 0.733 | 0.781 | 0.689
NCI-H3122 | 0.103 | 0.0758 | 0.0797 | 0.0807 | 0.0854 | 0.967 | 1.07 | 0.993 | 1.04 | 0.633 | 0.549 | 0.637 | 0.504 | 0.714 | 0.725 | 0.752 | 0.691 | 0.771
PC-3 [JPC-3] | 0.74 | 0.665 | 0.648 | 0.722 | 0.477 | 0.465 | 0.459 | 0.447 | 0.496 | 1.18 | 1.21 | 1.22 | 1.16 |  | 1.04 | 1.02 | 0.988 | 0.585
PC-14 |  | 0.147 | 0.12 | 0.192 | 0.149 | 0.311 | 0.324 | 0.328 | 0.316 | 0.26 | 0.248 | 0.342 | 0.292 | 0.823 | 0.915 | 0.883 | 0.864 | 0.783
RERF-LC-KJ | 1.13 | 1.25 | 1.16 | 1.2 | 0.797 | 0.892 | 0.836 | 0.925 | 0.797 | 0.787 | 0.846 | 1.12 | 0.877 | 0.729 | 0.463 | 0.673 | 0.655 | 0.468
SK-LU-1 | 0.176 | 0.223 | 0.238 | 0.175 | 0.2 | 0.798 | 0.789 | 0.915 | 0.823 | 0.444 | 0.476 | 0.4 | 0.434 |  | 0.953 | 0.99 | 1.1 | 0.977
SK-MES-1 | 0.738 | 0.665 | 0.625 | 0.482 | 0.326 | 0.543 | 0.5 | 0.467 | 0.448 | 0.662 | 0.684 | 0.863 | 0.615 | 0.698 |  | 0.709 | 0.629 | 0.33
SW 1573 | 0.293 | 0.23 | 0.387 | 0.233 | 0.146 | 1.06 | 0.906 | 1.05 | 1.12 | 0.449 | 0.445 | 0.551 | 0.39 | 0.705 | 0.648 | 0.635 | 0.821 | 0.843
